Measurements from US8492347B2, “Peptide for induction of immune tolerance as treatment for systemic lupus erythematosus” (The Regents of the University of California, priority 2007, dated 2013).
Where two headings read alike, the source gives them in different places. Where no end group is shown, it is not given here. [ ]: non-standard residue; d: D form.

Legend:
mice = test: induction of Treg and Ti in mice by administered peptide; type: in vivo; conditions: administered subcutaneously (so in the source)
BWF1 mice [1] = test: proteinuria (Azostix) in mice fed peptide; type: in vivo; conditions: 250 ug fed 5 days out of each 30 from age 10 weeks; for proteinuria vs saline: at 34 weeks
Protocol: (§1) Anti-DNA antibodies were measured by ELISA and proteinuria by Azostix (see, e.g. Yang et al., J. I., 2003, 171: 2142-2153).
(§2) We also observed the clinical effects of feeding either D- or L-peptides at the low, medium and high doses of each. Because mRNA analysis of mesenteric lymph nodes provided evidence that high dose D-peptide would induce tolerance, we began new experiments to compare high dose (250 ug) feedings of D-peptide to the same dose of L-peptide. A control group was fed saline on the same schedule as the peptide feedings, which is daily for 5 days out of each 30 days. Each group contains 14 mice; treatment was begun at age 10 weeks. Observed effects on anti-DNA are as follows. […] Note that the saline control group is lower than the positive control anti-DNA, which is serum from BWF1 mice with heavy proteinuria and imminent death. Thus, the saline control has not reached the expected high level at this point but should do so in the next 2 months.
Observed effects on Proteinuria are as follows.

BWF1 mice [2] = test: FACS of CD8+ Foxp3+ T cells in mesenteric nodes and spleen after peptide gavage; type: in vivo
Protocol: Lastly, we synthesized the D-form of pCons, for the purpose of administering it orally since D-forms are resistant to acid degradation. […] Specifically, studies have been completed in which BWF1 mice were fed 5 days a week out of every 30 days saline, low dose pCons (25 ug), middle dose (100 ug) or high dose (250 ug) by gavage. Both D and L-forms are being studied. Most of those mice were sacrificed to study characteristics of cells in mesenteric lymph nodes and spleens. Observations from these studies are disclosed in the following paragraphs.
First, we observed that CD8+ T cells that express Foxp3 (known to be inhibitory T cells for SLE) were induced in mesenteric nodes and spleen cells by the highest dose (250 ug) of D-peptide and by the middle dose (100 ug) and high dose of L-peptide. Thus the administration of low/middle dose D-peptide and of low dose L-peptide was not effective. Data were obtained by FACS analysis of total node populations, with percent of CD8+ Foxp3+ cells in untreated mice <1%, compared to 3-6% of total CD8+ cells in the effective doses of peptide. These changes are high enough to be clinically significant according to our earlier data with L-peptide given i.v.

BWF1 mice [3] = test: anti-DNA antibodies (ELISA) in mice fed peptide; type: in vivo; conditions: 250 ug fed 5 days out of each 30 from age 10 weeks
Protocol: as §1, §2

[4] = test system: peripheral blood mononuclear cells from patients with SLE; test: expansion of CD4+ CD25hi T cells in SLE patient cells cultured with peptide for 5 days; type: cell-based, human; conditions: for expansion of CD4+ CD25hi (Foxp3+) regulatory T cell populations: SLE patient cells in culture, 5 days
Protocol: In these experiments, pCons and other stimulatory (peptides B and D) peptides and non-stimulatory peptides (peptide A) that are wild peptides from human monoclonal antibodies to DNA were incubated with peripheral blood mononuclear cells from patients with SLE.
In FIGS. 6 and 7, we show data on the ability of L-pCons to mature the CD4+ CD25hiFoxp3+ natural regulatory cells in patients with SLE. In these experiments, pCons and other stimulatory (peptides B and D) peptides and non-stimulatory peptides (peptide A) that are wild peptides from human monoclonal antibodies to DNA were incubated with peripheral blood mononuclear cells from patients with SLE. […] Such cells are thought to be regulatory T cells.
(§3) Next, we studied the ability of L-pCons to induce Treg in T cells from the peripheral blood of patients with SLE (36 patients, 32 healthy controls). Stimulatory control peptides B and D are wild peptides from human mAb anti-DNA; peptide A is a nonstimulatory negative control (see, e.g. Kaki et al., Lupus 2004; 13:490-500). […] These expanded cells were regulatory (FIG. 8): they suppressed proliferation and IFNg synthesis by autologous CD4+ CD25− cells in culture. Numbers of CD4+ Foxp3+ T cells were also expanded and silencing of Foxp3 by transfection with specific siRNA for Foxp3 abrogated the suppressive capacity of the induced T reg by ½ (3rd panel, FIG. 8). […] Patients who were anti-DNA negative were unlikely to respond to pCons with expansion of Treg (see, e.g. La Cava et al, Lupus. 2008; 17(5):421-5).

BWF1 mice [5] = conditions: cited from earlier work
BWF1 mice [6] = test: survival and clinical disease in BWF1 mice given L-pCons intravenously; type: in vivo; conditions: 1 mg i.v. monthly from age 10 weeks
Protocol: FIG. 3 provides a graph of data showing the suppression of clinical disease that occurs in BWF1 mice treated monthly from age 10 weeks with 1 mg of L-pCons administered intravenously.
For tolerance induction, ten-to-twelve week-old BWF1 mice received a single i.v. dose of 1 mg of one of the peptides, dissolved in saline, as reported previously (see, e.g. Singh et al., J Clin Invest 1995; 96:2990-6). Controls in selected experiments were either treated with saline or control peptides.
Using 50% mortality times, the lifespan is prolonged 30-32 weeks. […] A similar study has been started with D-pCons administered orally; results are anticipated in 30 weeks. Serum is obtained at regular intervals for anti-DNA testing; urine is tested for proteinuria monthly (when 2+ appears mice are tested weekly), and survival is measured daily.
Since this increase in survival was small (6 weeks), we developed an algorithm based on 435 VH sequence peptides to create an artificial 15-mer peptide containing amino acid sequences which bind to I-Ed (one of the MHC Class II molecules in BWF1) and to be stimulatory for BWF1 T cells—which we called pConsensus or pCons. […] The control artificial 15-mer, pNegative (pNeg) was constructed to bind I-Ed but not stimulate T cells. […]

CD4+ CD25− T cells = test: suppression of autologous CD4+ CD25− T cells by pCons-induced Treg; type: cell-based, human; conditions: 1:1 ratios
Text: T cells were also expanded and silencing of Foxp3 by transfection with specific siRNA for Foxp3 abrogated the suppressive capacity of the induced T reg by ½ (3rd panel, FIG. 8).
as §3

BWF1 mice [7] = test: single adoptive transfer of CD8+ Ti from tolerized mice to irradiated syngeneic recipients; type: in vivo; conditions: single transfer of 10×10^6 CD8+ T cells from spleens of tolerized mice
Text: FIG. 4 provides graphs of data showing the CD8+ Ti induced by i.v. administration of L-pCons are potent in suppressing nephritis (left panel) and prolonging survival in vivo (right panel) (see, e.g. Hahn et al., J Immunol 2005; 175:7728-37).

[8] = high dose i.v. tolerogen once a month, BWF1 females

| Sequence | induction of Treg and Ti (mice) | mean level of proteinuria (zero to 4+) (BWF1 mice [1]; at 24 weeks of age) | proteinuria vs saline (BWF1 mice [1]; listed as D-peptide) | induction of CD8+ T cells that express Foxp3 (BWF1 mice [2]; low dose 25 ug by gavage) | induction of CD8+ T cells that express Foxp3 (BWF1 mice [2]; middle dose 100 ug by gavage) | anti-DNA antibody levels vs saline (BWF1 mice [3]; at 24 weeks of age, not statistically significant) | anti-DNA antibody levels vs saline (BWF1 mice [3]; at 34 weeks, one-tailed t test, listed as D-peptide) | patients showing expansion of CD4+ CD25hi cells to more than the usual 2-3% of peripheral blood MNC ([4]; 5 days in culture) | expansion of CD4+ CD25hi (Foxp3+) regulatory T cell populations [4] | expansion of CD4+ CD25hi (Foxp3+) regulatory T cell populations ([4]; listed as pCons) | proteinuria vs saline (BWF1 mice [1]; listed as L-peptide) | appearance of anti-DNA, anti-phospholipid, and proteinuria (BWF1 mice [5]; [8]) | prolongation of survival (BWF1 mice [5]; [8]) [week] | prolongs survival (BWF1 mice [5]; started after nephritis and anti-DNA antibodies have appeared) | prolongs survival (BWF1 mice [5]; started prior to disease onset) | appearance of IgG anti-DNA in serum and of nephritis (BWF1 mice [6]) | lifespan prolonged, using 50% mortality times (BWF1 mice [6]) | anti-DNA antibody levels vs saline (BWF1 mice [3]; at 34 weeks, one-tailed t test, listed as L-peptide) | effect of peptide-induced Treg on CD4+ CD25− T cells (CD4+ CD25− T cells) | effect of peptide-induced CD8+ Ti on nephritis and survival (BWF1 mice [7]) |
| --- | --- | --- | --- | --- | --- | --- | --- | --- | --- | --- | --- | --- | --- | --- | --- | --- | --- | --- | --- | --- |
| FIEWNKLRFRQGLEW ([dF][dI][dE][dW][dN][dK][dL][dR][dF][dR][dQ]G[dL][dE][dW]) [D-pCons] | induces Treg and Ti | no differences in mean level of proteinuria | lower in the D-peptide group (p=0.18) | not effective | not effective | trends to lower anti-DNA antibody levels | borderline (p=0.17 by one-tailed t test) |  |  |  |  |  |  |  |  |  |  |  |  |  |
| FIEWNKLRFRQGLEW [L-pCons] |  |  |  |  |  |  |  | Thirteen of 23 | expand significantly | expanded CD4+ CD25hi populations in some patients | lower in the L-peptide group (p=0.01) | significant delay | 24 | 3-4 months | 4-5 months | significant delay | 30-32 weeks | significantly lower than saline (p=0.03) | suppress proliferation and IFNg production | potent in suppressing nephritis and prolonging survival in vivo |
